From ChEMBL document CHEMBL1137760, “Synthesis and activity of tryptophan sulfonamide derivatives as novel non-hydroxamate TNF-alpha converting enzyme (TACE) inhibitors” (Bioorg Med Chem, 2009)

molecular target: Disintegrin and metalloproteinase domain-containing protein 17 (Homo sapiens, UniProt P78536); assay: Inhibition of TACE by FRET assay
Sequence (P78536 whole entry, the tested form may be a part): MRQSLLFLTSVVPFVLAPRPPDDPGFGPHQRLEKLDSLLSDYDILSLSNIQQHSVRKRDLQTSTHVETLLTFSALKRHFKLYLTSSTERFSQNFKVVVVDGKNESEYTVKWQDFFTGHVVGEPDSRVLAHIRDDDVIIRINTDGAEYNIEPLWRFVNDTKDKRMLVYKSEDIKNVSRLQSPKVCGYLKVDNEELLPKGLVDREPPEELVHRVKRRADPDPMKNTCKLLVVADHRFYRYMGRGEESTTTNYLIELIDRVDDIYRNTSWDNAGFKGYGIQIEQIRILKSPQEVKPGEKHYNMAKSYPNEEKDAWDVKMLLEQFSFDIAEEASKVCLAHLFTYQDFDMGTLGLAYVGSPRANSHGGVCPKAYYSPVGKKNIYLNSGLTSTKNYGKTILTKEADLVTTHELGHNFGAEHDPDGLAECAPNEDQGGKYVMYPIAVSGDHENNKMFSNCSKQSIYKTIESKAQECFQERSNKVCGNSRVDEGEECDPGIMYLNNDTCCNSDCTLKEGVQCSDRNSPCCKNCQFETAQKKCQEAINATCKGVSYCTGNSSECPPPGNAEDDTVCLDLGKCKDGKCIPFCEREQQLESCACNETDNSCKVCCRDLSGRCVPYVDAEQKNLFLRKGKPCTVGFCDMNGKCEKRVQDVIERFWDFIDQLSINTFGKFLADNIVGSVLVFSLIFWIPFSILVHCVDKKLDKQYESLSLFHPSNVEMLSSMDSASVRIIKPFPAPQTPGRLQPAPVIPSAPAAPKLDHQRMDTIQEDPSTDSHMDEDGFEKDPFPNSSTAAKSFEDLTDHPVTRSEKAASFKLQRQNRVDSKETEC

**Q.** For CC#CCOc1ccc(S(=O)(=O)NC(Cc2cn(Cc3cccc(OC)c3)c3ccc(OC)cc23)C(=O)O)cc1 (racemic), which IC50 is on record?
**A.** 2240 nM

**Q.** With CC#CCOc1ccc(S(=O)(=O)NC(Cc2c(C)n(Cc3ccccc3F)c3ccc(OC)cc23)C(=O)O)cc1 (racemic) as the compound, how does the IC50 read?
**A.** 300 nM

**Q.** How did the IC50 turn out when CC#CCOc1ccc(S(=O)(=O)NC(Cc2cn(Cc3ccccc3F)c3ccc(OC)cc23)C(=O)O)cc1 (racemic) was run?
**A.** 2240 nM

**Q.** How did the IC50 turn out when CC#CCOc1ccc(S(=O)(=O)NC(Cc2c(C)n(C)c3ccc(OC)cc23)C(=O)O)cc1 (racemic) was run?
**A.** 900 nM

**Q.** Which IC50 does the source give for CC#CCOc1ccc(S(=O)(=O)NC(Cc2c(C)n(CC(C)C)c3ccc(Cl)cc23)C(=O)O)cc1 (racemic) here?
**A.** 300 nM

**Q.** How did the IC50 turn out when CC#CCOc1ccc(S(=O)(=O)NC(Cc2c[nH]c3ccc(Br)cc23)C(=O)O)cc1 (racemic) was run?
**A.** 630 nM

**Q.** With CC#CCOc1ccc(S(=O)(=O)NC(Cc2cn(C)c3ccc(C(=O)O)cc23)C(=O)O)cc1 (racemic) as the compound, how does the IC50 read?
**A.** > 100000 nM

**Q.** For CC#CCOc1ccc(S(=O)(=O)NC(Cc2c(C)n(Cc3cccc(OC)c3)c3ccc(OC)cc23)C(=O)O)cc1 (racemic), which IC50 is on record?
**A.** 280 nM

**Q.** CC#CCOc1ccc(S(=O)(=O)NC(Cc2cn(Cc3ccc4c(c3)OCO4)c3ccc(OC)cc23)C(=O)O)cc1 (racemic) was tested. Which IC50 did it give?
**A.** 1500 nM

**Q.** For CC#CCOc1ccc(S(=O)(=O)NC(Cc2cn(CC(C)C)c3ccc(OC)cc23)C(=O)O)cc1 (racemic), which IC50 is on record?
**A.** 1230 nM

**Q.** For CC#CCOc1ccc(S(=O)(=O)NC(Cc2c(C)n(Cc3ccccc3)c3ccc(OC)cc23)C(=O)O)cc1 (racemic), which IC50 is on record?
**A.** 250 nM

**Q.** CC#CCOc1ccc(S(=O)(=O)N[C@H](Cc2cn(C)c3ccccc23)C(=O)O)cc1 was tested. Which IC50 did it give?
**A.** 1430 nM

**Q.** CC#CCOc1ccc(S(=O)(=O)NC(Cc2c(C)n(Cc3cccc(C#N)c3)c3ccc(OC)cc23)C(=O)O)cc1 (configuration not stated) was tested. Which IC50 did it give?
**A.** 410 nM

**Q.** How did the IC50 turn out when CC#CCOc1ccc(S(=O)(=O)NC(Cc2c[nH]c3cc(F)ccc23)C(=O)O)cc1 (racemic) was run?
**A.** 2960 nM

**Q.** For CC#CCOc1ccc(S(=O)(=O)NC(Cc2cn(Cc3ccccc3)c3ccc(C(=O)O)cc23)C(=O)O)cc1 (racemic), which IC50 is on record?
**A.** > 100000 nM

**Q.** CC#CCOc1ccc(S(=O)(=O)NC(Cc2c[nH]c3ccc(OCc4ccccc4)cc23)C(=O)O)cc1 (stereo in doubt; 11h) was tested. Which IC50 did it give?
**A.** 6980 nM

**Q.** CC#CCOc1ccc(S(=O)(=O)NC(Cc2c[nH]c3ccc(OCc4ccccc4)cc23)C(=O)O)cc1 (single isomer, unassigned; enantiomer 2) was tested. Which IC50 did it give?
**A.** 370 nM

**Q.** CC#CCOc1ccc(S(=O)(=O)NC(Cc2cn(Cc3ccc(OC)cc3)c3ccc(C)cc23)C(=O)O)cc1 (racemic) was tested. Which IC50 did it give?
**A.** 890 nM

**Q.** CC#CCOc1ccc(S(=O)(=O)NC(Cc2c[nH]c3ccc(OC)cc23)C(=O)O)cc1 (single isomer, unassigned; enantiomer 2) was tested. Which IC50 did it give?
**A.** 140 nM

**Q.** How did the IC50 turn out when CC#CCOc1ccc(S(=O)(=O)NC(Cc2c(C)n(Cc3cccc(F)c3)c3ccc(OC)cc23)C(=O)O)cc1 (racemic) was run?
**A.** 340 nM

**Q.** For CC#CCOc1ccc(S(=O)(=O)NC(Cc2c(C)n(Cc3ccc(Cl)cc3)c3ccc(Cl)cc23)C(=O)O)cc1 (racemic), which IC50 is on record?
**A.** 330 nM

**Q.** With CC#CCOc1ccc(S(=O)(=O)NC(Cc2cn(CC)c3ccc(C(=O)O)cc23)C(=O)O)cc1 (racemic) as the compound, how does the IC50 read?
**A.** > 100000 nM

**Q.** For CC#CCOc1ccc(S(=O)(=O)NC(Cc2c(C)n(Cc3ccc(OC)cc3)c3ccc(Cl)cc23)C(=O)O)cc1 (racemic), which IC50 is on record?
**A.** 190 nM

**Q.** CC#CCOc1ccc(S(=O)(=O)NC(Cc2c(C)n(Cc3ccc(C#N)cc3)c3ccc(OC)cc23)C(=O)O)cc1 (racemic) was tested. Which IC50 did it give?
**A.** 470 nM

**Q.** How did the IC50 turn out when CC#CCOc1ccc(S(=O)(=O)N[C@H](Cc2cn(CC3CCC3)c3ccccc23)C(=O)O)cc1 was run?
**A.** 1710 nM

**Q.** How did the IC50 turn out when CC#CCOc1ccc(S(=O)(=O)NC(Cc2c(C)n(Cc3ccc(Cl)cc3)c3ccc(OC)cc23)C(=O)O)cc1 (racemic) was run?
**A.** 290 nM

**Q.** For CC#CCOc1ccc(S(=O)(=O)NC(Cc2c[nH]c3ccc(F)cc23)C(=O)O)cc1 (racemic), which IC50 is on record?
**A.** 1560 nM

**Q.** CC#CCOc1ccc(S(=O)(=O)NC(Cc2c[nH]c3cc(C)ccc23)C(=O)O)cc1 (racemic) was tested. Which IC50 did it give?
**A.** 1570 nM

**Q.** How did the IC50 turn out when CC#CCOc1ccc(S(=O)(=O)NC(Cc2c[nH]c3ccc(OC)cc23)C(=O)O)cc1 (single isomer, unassigned; enantiomer 1) was run?
**A.** 10100 nM

**Q.** For CC#CCOc1ccc(S(=O)(=O)NC(Cc2c[nH]c3ccc(O)cc23)C(=O)O)cc1 (racemic), which IC50 is on record?
**A.** 1610 nM

**Q.** Which IC50 does the source give for CC#CCOc1ccc(S(=O)(=O)NC(Cc2c(C)n(Cc3ccc(F)cc3)c3ccc(OC)cc23)C(=O)O)cc1 (racemic) here?
**A.** 320 nM

molecular target: 72 kDa type IV collagenase (Homo sapiens, UniProt P08253); assay: Inhibition of MMP2 by […] assay
Sequence (P08253 whole entry): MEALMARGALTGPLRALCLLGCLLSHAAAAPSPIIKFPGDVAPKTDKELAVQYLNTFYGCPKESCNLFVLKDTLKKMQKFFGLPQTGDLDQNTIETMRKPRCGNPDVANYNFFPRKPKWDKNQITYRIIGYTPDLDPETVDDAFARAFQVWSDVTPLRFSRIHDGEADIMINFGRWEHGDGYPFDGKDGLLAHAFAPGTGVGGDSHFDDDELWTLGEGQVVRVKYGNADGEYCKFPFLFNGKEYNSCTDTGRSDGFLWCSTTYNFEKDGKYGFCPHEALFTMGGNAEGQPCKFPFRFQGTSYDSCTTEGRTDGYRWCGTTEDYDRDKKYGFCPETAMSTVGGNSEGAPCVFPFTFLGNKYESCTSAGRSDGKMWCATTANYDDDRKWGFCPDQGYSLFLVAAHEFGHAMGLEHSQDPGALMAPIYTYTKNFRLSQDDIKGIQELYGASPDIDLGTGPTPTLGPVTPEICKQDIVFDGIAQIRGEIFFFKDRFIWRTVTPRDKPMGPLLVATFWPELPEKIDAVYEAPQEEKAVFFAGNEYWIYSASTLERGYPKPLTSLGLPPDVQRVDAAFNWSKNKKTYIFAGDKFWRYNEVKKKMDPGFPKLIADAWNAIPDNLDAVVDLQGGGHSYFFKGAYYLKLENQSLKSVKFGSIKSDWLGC

**Q.** Which IC50 does the source give for CC#CCOc1ccc(S(=O)(=O)N[C@H](Cc2c[nH]c3ccc(C)cc23)C(=O)O)cc1 here?
**A.** 270 nM

**Q.** Which IC50 does the source give for CC#CCOc1ccc(S(=O)(=O)NC(Cc2c[nH]c3ccc(OCc4ccccc4)cc23)C(=O)O)cc1 (single isomer, unassigned; enantiomer 2) here?
**A.** 3270 nM

**Q.** Which IC50 does the source give for CC#CCOc1ccc(S(=O)(=O)NC(Cc2c[nH]c3ccc(OC)cc23)C(=O)O)cc1 (single isomer, unassigned; enantiomer 2) here?
**A.** 1270 nM

molecular target: Collagenase 3 (Homo sapiens, UniProt P45452); assay: Inhibition of MMP13 by […] assay

**Q.** How did the IC50 turn out when CC#CCOc1ccc(S(=O)(=O)N[C@H](Cc2c[nH]c3ccc(C)cc23)C(=O)O)cc1 was run?
**A.** 1810 nM

**Q.** Which IC50 does the source give for CC#CCOc1ccc(S(=O)(=O)NC(Cc2c[nH]c3ccc(OCc4ccccc4)cc23)C(=O)O)cc1 (single isomer, unassigned; enantiomer 2) here?
**A.** 4440 nM

**Q.** For CC#CCOc1ccc(S(=O)(=O)NC(Cc2c[nH]c3ccc(OC)cc23)C(=O)O)cc1 (single isomer, unassigned; enantiomer 2), which IC50 is on record?
**A.** 13600 nM

molecular target: Matrix metalloproteinase-14 (Homo sapiens, UniProt P50281); assay: Inhibition of MMP14 by […] assay

**Q.** Which IC50 does the source give for CC#CCOc1ccc(S(=O)(=O)N[C@H](Cc2c[nH]c3ccc(C)cc23)C(=O)O)cc1 here?
**A.** 6820 nM

**Q.** CC#CCOc1ccc(S(=O)(=O)NC(Cc2c[nH]c3ccc(OCc4ccccc4)cc23)C(=O)O)cc1 (single isomer, unassigned; enantiomer 2) was tested. Which IC50 did it give?
**A.** 19700 nM

**Q.** Which IC50 does the source give for CC#CCOc1ccc(S(=O)(=O)NC(Cc2c[nH]c3ccc(OC)cc23)C(=O)O)cc1 (single isomer, unassigned; enantiomer 2) here?
**A.** 20700 nM

molecular target: Disintegrin and metalloproteinase domain-containing protein 17 (Mus musculus, UniProt Q9Z0F8); assay: Inhibition of TACE in mouse Raw264.7 cells assessed as inhibition of LPS-induced TNFalpha production treated 1 hr before LPS challenge measured 4 hrs post LPS challenge; assay type: cell-based
Sequence (Q9Z0F8 whole entry, the tested form may be a part): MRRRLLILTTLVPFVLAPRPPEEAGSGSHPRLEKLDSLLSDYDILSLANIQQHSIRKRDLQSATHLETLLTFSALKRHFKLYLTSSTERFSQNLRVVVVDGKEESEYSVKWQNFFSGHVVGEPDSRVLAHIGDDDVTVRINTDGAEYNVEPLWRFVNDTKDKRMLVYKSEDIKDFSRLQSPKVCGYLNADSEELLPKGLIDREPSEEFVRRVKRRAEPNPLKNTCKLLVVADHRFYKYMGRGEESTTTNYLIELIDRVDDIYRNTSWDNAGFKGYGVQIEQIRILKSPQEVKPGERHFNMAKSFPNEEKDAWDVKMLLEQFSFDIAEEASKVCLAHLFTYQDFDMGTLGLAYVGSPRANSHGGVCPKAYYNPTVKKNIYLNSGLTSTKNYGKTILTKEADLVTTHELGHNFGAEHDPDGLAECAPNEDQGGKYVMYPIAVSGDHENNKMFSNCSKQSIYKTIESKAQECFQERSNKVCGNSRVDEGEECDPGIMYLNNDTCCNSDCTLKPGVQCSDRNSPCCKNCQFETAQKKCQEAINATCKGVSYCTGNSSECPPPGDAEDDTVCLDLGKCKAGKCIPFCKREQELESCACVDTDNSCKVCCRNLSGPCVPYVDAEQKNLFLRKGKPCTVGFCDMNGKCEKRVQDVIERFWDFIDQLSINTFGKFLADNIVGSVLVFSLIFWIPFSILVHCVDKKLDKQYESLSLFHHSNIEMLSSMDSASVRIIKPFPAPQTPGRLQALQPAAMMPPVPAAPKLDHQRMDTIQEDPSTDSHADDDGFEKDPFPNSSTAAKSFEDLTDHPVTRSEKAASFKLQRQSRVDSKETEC

**Q.** How did the IC50 turn out when CC#CCOc1ccc(S(=O)(=O)N[C@H](Cc2cn(Cc3ccc(OC)cc3)c3ccccc23)C(=O)O)cc1 was run?
**A.** > 100000 nM

**Q.** With CC#CCOc1ccc(S(=O)(=O)N[C@H](Cc2c[nH]c3ccc(C)cc23)C(=O)O)cc1 as the compound, how does the IC50 read?
**A.** 7800 nM

**Q.** How did the IC50 turn out when CC#CCOc1ccc(S(=O)(=O)NC(Cc2c[nH]c3ccc(OC)cc23)C(=O)O)cc1 (single isomer, unassigned; enantiomer 2) was run?
**A.** 57000 nM

molecular target: T1, Interstitial collagenase (Homo sapiens, UniProt P03956); assay: Inhibition of MMP1 by FRET assay
T1 sequence (P03956 whole entry): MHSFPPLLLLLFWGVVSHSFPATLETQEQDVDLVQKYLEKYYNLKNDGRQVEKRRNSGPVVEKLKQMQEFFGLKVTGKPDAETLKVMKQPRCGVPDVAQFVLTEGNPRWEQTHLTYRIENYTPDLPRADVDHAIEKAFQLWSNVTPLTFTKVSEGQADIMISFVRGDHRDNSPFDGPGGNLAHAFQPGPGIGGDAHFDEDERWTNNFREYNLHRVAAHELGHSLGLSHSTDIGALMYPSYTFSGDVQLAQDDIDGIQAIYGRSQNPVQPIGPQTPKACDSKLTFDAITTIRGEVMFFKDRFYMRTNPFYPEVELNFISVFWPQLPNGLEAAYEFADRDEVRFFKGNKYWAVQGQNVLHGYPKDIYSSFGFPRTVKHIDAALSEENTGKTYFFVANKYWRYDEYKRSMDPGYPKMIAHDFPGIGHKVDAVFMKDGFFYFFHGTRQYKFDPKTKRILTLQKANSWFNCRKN

**Q.** How did the IC50 turn out when CC#CCOc1ccc(S(=O)(=O)N[C@H](Cc2cn(Cc3ccc(OC)cc3)c3ccccc23)C(=O)O)cc1 was run?
**A.** > 50000 nM

**Q.** How did the IC50 turn out when CC#CCOc1ccc(S(=O)(=O)N[C@H](Cc2c[nH]c3ccc(C)cc23)C(=O)O)cc1 was run?
**A.** > 50000 nM

**Q.** With CC#CCOc1ccc(S(=O)(=O)NC(Cc2c[nH]c3ccc(OCc4ccccc4)cc23)C(=O)O)cc1 (single isomer, unassigned; enantiomer 2) as the compound, how does the IC50 read?
**A.** > 50000 nM

**Q.** CC#CCOc1ccc(S(=O)(=O)NC(Cc2c[nH]c3ccc(OC)cc23)C(=O)O)cc1 (single isomer, unassigned; enantiomer 2) was tested. Which IC50 did it give?
**A.** > 50000 nM
